# Laboratory results reported in patent publication US11597739B2, “Enhancing CD8+ T cells for adoptive T cell therapy by inhibiting PTPN1 (PTP1B) and PTPN2 (TC-PTP)” (The Royal Institution for the Advancement of …, priority 2017, dated 2023).
# Test system: mouse CD8 T cells differentiated into Tcm cells
# Experiment: Exhaustion and effector markers after CTL re-stimulation (flow cytometry)
# Type: cell-based
# Settings: second stimulation with anti-CD3, anti-CD28 and IL-2 for 5 days
# Text: FIG. 8 illustrates that pharmacological inhibition of PTPN1/2 reduces expression of exhaustion markers and increases effector-molecule expression after CTL re-stimulation. Flow cytometric analysis of CD8 T cells differentiated into Tcm cells after 5 days of a second stimulation with anti-CD3 and anti-CD28 in presence or absence of K884. Histograms show the expression of exhaustion markers PD-1, CTLA-4, KLRG1 and LAG-3, and granzyme B and IFN-γ as markers of effector CTLs. Cells are gated on live/CD8+/CD62L^high.
# 2 μg/ml of 145-2C11 Hamster anti-Mouse CD3e in 300 μl of PBS are plated in 24 flat bottom well non-TC treated plates. Incubate O/N at 4° C. CD8 T cells from spleens of 8-12 weeks old OT-1 transgenic mice are isolated. 4×10^5 cells/ml are counted and resuspended in complete RPMI (RPMI+10% FBS heat inactivated at 55° C. for 45 min+Pen/Strep+55 μM β-Mercaptoethanol). The following 2× solutions are prepared:
# 0.5 ml of 2× solution is added to the corresponding wells. Incubate for 4-8 days. Every 2 days add inhibitor to the corresponding concentration. When the cells are confluent, expand to 6 cm tissue culture plates adding 4 ml of complete RPMI+20 U/ml of IL-2 and in b add 10 μM K884.
# Calculate the specific cell lysis as follows: Specific cell lysis=((Sample−BF)/(AF−BF))×100 10) Flow Cytometry 1. Cell Activation • a. Wash cells with 1 ml of culture medium; • b. Centrifuge cells for 5 min at 300 g; • c. Resuspend cells in culture medium; • d. Prepare 2× solutions (negative control with only culture medium, Positive condition with 50 ng/mL of PMA and 500 ng/mL of lonomycin); • e. Plate 100 μL of cell suspension in 96 well plates (U-bottom); • f. Add 100 μL of 2× solutions in appropriate wells; • g. Incubate 4 hours at 37 C, 5% CO2. 2. Extracellular Staining • a. Record cell quantity transfers per tube; • b. Wash cells with 1 mL of PBS+2% FBS; • c. Centrifuge cells for 5 min at 300 g; • d. Empty tubes by inversion; • e. Add the antibodies for extracellular staining; • f. Incubate 20 min at 4° C.; • g. Wash cells with 1 mL of PBS+2% FBS; • h. Centrifuge cells for 5 min at 300 g; • i. […]
smiles,measurement,value
"CCOC(=O)c1cc2cc(C(F)(F)P(=O)(O)O)c(Br)cc2s1 [Ex. 1, ((6-BROMO-2-(ETHOXYCARBONYL)BENZO[B]THIOPHEN-5-YL)DIFLUOROMETHYL)PHOSPHONATE]","expression of exhaustion markers PD-1, CTLA-4, KLRG1","displayed less exhaustion markers PD-1, CDTLA4 and KLRG1"
same,expression of the receptor LAG-3,increased expression of the receptor LAG-3
same,levels of Granzyme B and IFN-gamma,higher levels of Granzyme B and IFN-gamma
